The record followed here is ChEMBL document CHEMBL2311430, “Sirtuins as emerging anti-parasitic targets” (Eur J Med Chem, 2013).

Numbered stars: 1 amine (or outer) side, 2 acyl side, 3 side chain; on linkers, the order of the positions; unused ones are H or OH. Bridge positions count the residues as written; N and C are the ends. Square brackets hold non-standard residues; d marks the D form. Peptide text beside a SMILES is read from it. X1 = CC(C)CCCCCCCCC[C@H](CC(=O)[*:1])O[*:2]

Tested on in one experiment: not listed separately
As to the kind of experiment: Inhibition of Plasmodium falciparum NAD-dependent protein deacetylase Sir2A.
For the compound `NC(=O)c1cccnc1` [NIACINAMIDE], the midpoint of inhibition, the IC50, lay at 51.2 µM.

A further experiment deals with T1, Putative silent information regulator 2 (Leishmania infantum, UniProt A0A6L0XH39).
T1 sequence (A0A6L0XH39 whole entry): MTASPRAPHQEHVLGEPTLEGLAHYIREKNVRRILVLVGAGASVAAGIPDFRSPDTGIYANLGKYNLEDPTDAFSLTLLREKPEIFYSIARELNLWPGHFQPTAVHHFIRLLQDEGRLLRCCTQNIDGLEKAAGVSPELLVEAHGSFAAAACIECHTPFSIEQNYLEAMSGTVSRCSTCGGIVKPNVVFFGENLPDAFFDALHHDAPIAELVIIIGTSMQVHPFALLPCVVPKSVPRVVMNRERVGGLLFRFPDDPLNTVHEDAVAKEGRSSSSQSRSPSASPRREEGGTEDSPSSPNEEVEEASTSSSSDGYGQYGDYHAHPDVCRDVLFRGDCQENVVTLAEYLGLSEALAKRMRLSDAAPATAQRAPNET
As to the kind of experiment: Inhibition of Leishmania infantum SIR2RP1.
`CC(C)CCCCCCCCC[C@@H]1CC(=O)N[C@@H](CCC(=O)O)C(=O)N[C@@H](CC(C)C)C(=O)N[C@H](CC(C)C)C(=O)N[C@@H](C(C)C)C(=O)N[C@@H](CC(=O)O)C(=O)N[C@H](CC(C)C)C(=O)N[C@@H](CC(C)C)C(=O)O1` [SURFACTIN] (EL[dL]VD[dL]L; linker N-C via X1): the IC50 worked out at 35.2 µM.

Turning to `O=C1c2cccc3cccc(c23)C(=O)N1CCCNCCCCCCCCCNCCCN1C(=O)c2cccc3cccc(c23)C1=O` [BNIPDANON], the IC50 amounted to 5.7 µM.

With `O=C1c2cccc3cccc(c23)C(=O)N1CCCNCCCCCCCCNCCCN1C(=O)c2cccc3cccc(c23)C1=O` [BNIPDAOCT], it took 9.2 µM to reach half-maximal inhibition (IC50). Compared with the last compound, the IC50 is about 1.6-fold higher.

Turning to `NC(=O)c1cccnc1` [NIACINAMIDE], inhibition was half-maximal at 39.4 µM (IC50).

Turning to `CC(NC(=O)c1ccccc1/N=C/c1c(O)ccc2ccccc12)c1ccccc1` (stereo unspecified) [SIRTINOL], the IC50 is 194 µM.

As usually defined, the IC50 is the concentration that gives 50% inhibition. A higher IC50 goes with a need for much substance.
